Laboratory results taken from patent publication US20180185370A1, “PYRAZINOQUINAZOLINONE DERIVATIVES WITH ANTIBACTERIAL ACTIVITY, METHODS AND USES THEREOF” (UNIVERSIDADE DO PORTO, priority 2015, published 2018).
Like-named read-outs stand apart in the source and are kept apart here.

How the values were obtained:
E. faecalis ATCC 29212 = assay: Antibacterial susceptibility testing, broth microdilution (MIC/MBC); format: cell-based, Enterococcus faecalis; details: for MIC: Enterococcus faecalis, ATCC29212, read-out: Minimum inhibitory concentration-MIC
Description: (§1) Bacterial strains and growth conditions. Five reference strains, Staphylococcus aureus ATCC 25923, Bacillus subtilis ATCC 6633, E. faecalis ATCC 29212, Escherichia coli ATCC 25922 and Pseudomonas aeruginosa ATCC 27853, and three multidrug-resistant isolates from environment, S. aureus B1 (a MRSA isolated from public buses), Enterococcus faecalis W1 (a VRE isolated from river water) and E. coli G1 (isolated from seagull feces) were used. Bacteria were grown overnight at 37° C. in Mueller-Hinton agar (MH—BioKar diagnostics, Allonne, France) prior to obtain be used in the subsequently described bioassays.
(§2) Antibacterial susceptibility testing. The minimum inhibitory concentration (MIC) values of the compounds of FIGS. 1D, 1E, 1G, 1H (equation i-iv) and 11 (equations v-x) were determined, in particular, by a broth microdilution technique, following the recommendations of the Clinical and Laboratory Standards Institute. Stock solutions of 10 mg/ml in DMSO were used to prepare in-test concentrations ranging from 2 to 256 μg/ml. Ciprofloxacin in the concentration range from 0.03125 to 16 μg/ml was used, in particular, as control drug in the experiment. The MIC was defined as the lowest concentration of compound that has inhibited the visible growth. The minimum bactericidal concentration (MBC) was determined by spreading on MH plates, 10 μL collected from the wells corresponding to the MIC and to higher concentrations, with further incubation for 24 h at 37° C.; the lowest concentration at which no growth occurred on MH was defined as the MBC.

E. faecalis W1 (VRE) = assay: as above; format: cell-based, Enterococcus faecalis; details: for MIC: Enterococcus faecalis, read-out: Minimum inhibitory concentration-MIC
Description: as §1, §2

P. aeruginosa ATCC 27853 = assay: Antibacterial susceptibility testing, broth microdilution (MIC); format: cell-based, Pseudomonas aeruginosa; details: for MIC: Pseudomonas aeruginosa, ATCC27853, read-out: Minimum inhibitory concentration-MIC
Description: as §1, §2

E. coli ATCC 25922 = assay: as above; format: cell-based, Escherichia coli; details: for MIC: Escherichia coli, ATCC25922, read-out: Minimum inhibitory concentration-MIC
Description: as §1, §2

B. subtilis ATCC 6633 = assay: Antibacterial susceptibility testing, broth microdilution (MIC/MBC); format: cell-based, Bacillus subtilis; details: for MIC: Bacillus subtilis, ATCC6633, read-out: Minimum inhibitory concentration-MIC
Description: as §1, §2

S. aureus B1 (MRSA) = assay: as above; format: cell-based, Staphylococcus aureus; details: for MIC: Staphylococcus aureus, read-out: Minimum inhibitory concentration-MIC
Description: as §1, §2

S. aureus ATCC 25923 = assay: as above; format: cell-based, Staphylococcus aureus; details: for MIC: Staphylococcus aureus, ATCC25923, read-out: Minimum inhibitory concentration-MIC
Description: as §1, §2

S. aureus B1 [1] = assay: Broth microdilution Checkerboard method; format: cell-based, Staphylococcus aureus; details: for combined effect with oxacillin: fiscalin C with oxacillin, MRSA (S. aureus B1)
Description: Synergistic studies between compounds and antibiotics. A screening susceptibility test to assess the combined effect between the compounds and antibiotics was conducted using the disc diffusion method on MH, against three multidrug-resistant isolates, E. coli G1, S. aureus B1 and E. faecalis W1. A set of antibiotic discs (Oxoid, Basingstoke, England) was selected based on the resistance of the isolates towards those antibiotics. […] The fractional inhibitory concentration (FIC) was calculated as follows: FIC of drug A (FIC A)=MIC of drug A in combination/MIC of drug A alone, and FIC of drug B (FIC B)=MIC of drug B in combination/MIC of drug B alone. The FIC index (ΣFIC), calculated as the sum of each FIC, was interpreted as follows: ΣFIC 0.5, synergy; 0.5<ΣFIC 4, no interaction; 4<ΣFIC, antagonism.

S. aureus B1 [2] = assay: Synergy screening with antibiotic discs, disc diffusion method; format: cell-based, Staphylococcus aureus; details: for inhibition zone: S. aureus B1; for zone of inhibition on agar plates: not in combination, MRSA isolate S. aureus B1
Description: Synergistic studies between compounds and antibiotics. A screening susceptibility test to assess the combined effect between the compounds and antibiotics was conducted using the disc diffusion method on MH, against three multidrug-resistant isolates, E. coli G1, S. aureus B1 and E. faecalis W1. A set of antibiotic discs (Oxoid, Basingstoke, England) was selected based on the resistance of the isolates towards those antibiotics. Based on the results of the previous assay, an unexpected synergetic effect between fiscalin C (see FIG. 1I, equation v) and oxacillin (Sigma-Aldrich, St. Louis, Mo., USA) was determined using, in particular, a broth microdilution Checkerboard method against the MRSA isolate (S. aureus B1). The fractional inhibitory concentration (FIC) was calculated as follows: FIC of drug A (FIC A)=MIC of drug A in combination/MIC of drug A alone, and FIC of drug B (FIC B)=MIC of drug B in combination/MIC of drug B alone. The FIC index (ΣFIC), calculated as the sum of each FIC, was interpreted as follows: ΣFIC 0.5, synergy; 0.5<ΣFIC 4, no interaction; 4<ΣFIC, antagonism.

Compound	Minimum inhibitory concentration-MIC (E. faecalis ATCC 29212)	Minimum inhibitory concentration-MIC (E. faecalis W1 (VRE); E. faecalis W1 (VRE))	Minimum inhibitory concentration-MIC (P. aeruginosa ATCC 27853)	Minimum inhibitory concentration-MIC (E. coli ATCC 25922)	Minimum inhibitory concentration-MIC (B. subtilis ATCC 6633)	Minimum inhibitory concentration-MIC (S. aureus B1 (MRSA); S. aureus B1 (MRSA))	Minimum inhibitory concentration-MIC (S. aureus ATCC 25923)	other results
CC(=O)O[C@H](c1nc2ccccc2c(=O)n1[C@@H]1C[C@]2(OC1=O)c1ccccc1N1C(=O)C(C)(C)N(O)[C@H]12)C(C)C [FIG. 1E, tryptoquivaline]								MIC (E. faecalis ATCC 29212): > 256 µg/mL; MIC (E. faecalis W1 (VRE); VRE): > 256 µg/mL; MIC (P. aeruginosa ATCC 27853): > 256 µg/mL; MIC (E. coli ATCC 25922): > 256 µg/mL; MIC (B. subtilis ATCC 6633): > 256 µg/mL; MIC (S. aureus B1 (MRSA); MRSA): > 256 µg/mL; MIC (S. aureus ATCC 25923): > 256 µg/mL
tryptoquivaline O [FIG. 1H (eq. iv)]	>256 µg/mL	>256 µg/mL	>256 µg/mL	>256 µg/mL	>256 µg/mL	>256 µg/mL	>256 µg/mL	
epi-fiscalin C [FIG. 1I (eq. vi)]	>256 µg/mL	>256 µg/mL	>256 µg/mL	>256 µg/mL	>256 µg/mL	>256 µg/mL	>256 µg/mL	
CC(C)[C@H]1NC(=O)[C@@H](C[C@]2(O)c3ccccc3N3C(=O)[C@H](C)N[C@H]32)n2c1nc1ccccc1c2=O [FIG. 1I (eq. viii), epi-fiscalin A]	>256 µg/mL	>256 µg/mL	>256 µg/mL	>256 µg/mL	>256 µg/mL	>256 µg/mL	>256 µg/mL	
CC(C)[C@@H]1NC(=O)[C@@H](C[C@]2(O)c3ccccc3N3C(=O)C(C)(C)N[C@H]32)n2c1nc1ccccc1c2=O [FIG. 1I (eq. v), fiscalin C]	>256 µg/mL	>256 µg/mL	>256 µg/mL	>256 µg/mL	>256 µg/mL	>256 µg/mL	>256 µg/mL	MIC (S. aureus B1 [1]; drug alone, S. aureus B1): >512 µg/mL; combined effect with ampicillin (S. aureus B1 [1]; fiscalin C with ampicillin, S. aureus B1): indifferent; combined effect with oxacillin (S. aureus B1 [1]; listed as Fiscalin C): synergistic effect; combined effect with oxacillin (S. aureus B1 [1]; listed as fiscalin C): clear synergistic effect; inhibition zone (S. aureus B1 [2]; fiscalin C in combination with ampicillin): 8 mm; inhibition zone (S. aureus B1 [2]; fiscalin C in combination with oxacillin): 10 mm; zone of inhibition on agar plates (S. aureus B1 [2]): neither fiscalin C, ampicillin or oxacillin produced any zone of inhibition
Cc1onc(-c2ccccc2)c1C(=O)N[C@@H]1C(=O)N2[C@@H]1SC(C)(C)[C@@H]2C(=O)O [Oxacillin, oxacillin, reference compound]								MIC (S. aureus B1 [1]; Staphylococcus aureus, drug alone, S. aureus B1, read-out: MIC): 128 µg/mL; zone of inhibition on agar plates (S. aureus B1 [2]): neither fiscalin C, ampicillin or oxacillin produced any zone of inhibition
CC1(C)C(=O)N2c3ccccc3C3(CC(n4cnc5ccccc5c4=O)C(=O)O3)C2N1O (centres unmarked) [FIG. 1H (eq. i), tryptoquivaline L]	>256 µg/mL	>256 µg/mL	>256 µg/mL	>256 µg/mL	>256 µg/mL	>256 µg/mL	> 256 µg/mL	
C[C@@H]1N[C@@H]2N(C1=O)c1ccccc1[C@@]21C[C@@H](n2cnc3ccccc3c2=O)C(=O)O1 [FIG. 1H (eq. iii), tryptoquivaline F]	>256 µg/mL	>256 µg/mL	>256 µg/mL	>256 µg/mL	>256 µg/mL	>256 µg/mL	>256 µg/mL	
epi-neofiscalin A [FIG. 1I (eq. x)]	>256 µg/mL	>256 µg/mL	>256 µg/mL	>256 µg/mL	>256 µg/mL	>256 µg/mL	>256 µg/mL	
CC(C)[C@]12NC(=O)[C@H](Cc3c1[nH]c1ccccc31)n1c2nc2ccccc2c1=O [FIG. 1D, sartorymensin]	>256 µg/mL	>256 µg/mL	>256 µg/mL	>256 µg/mL	>256 µg/mL	>256 µg/mL	> 256 µg/mL	
O=C1OC2(CC1n1cnc3ccccc3c1=O)C(=O)Nc1ccccc12 (centres unmarked) [FIG. 1G, 3′-(4oxoquinazolin-3yl) spiro [1H-indole-3,5′-oxolane]-2,2′-dione]								MIC (E. faecalis ATCC 29212): > 256 µg/mL; MIC (E. faecalis W1 (VRE); E. faecalis W1 (VRE)): > 256 µg/mL; MIC (P. aeruginosa ATCC 27853): > 256 µg/mL; MIC (E. coli ATCC 25922): > 256 µg/mL; MIC (B. subtilis ATCC 6633): > 256 µg/mL; MIC (S. aureus B1 (MRSA); S. aureus B1 (MRSA)): > 256 µg/mL; MIC (S. aureus ATCC 25923): > 256 µg/mL
CC1(C)S[C@@H]2[C@H](NC(=O)[C@H](N)c3ccccc3)C(=O)N2[C@H]1C(=O)O [Ampicillin, ampicillin, reference compound]								MIC (S. aureus B1 [1]; Staphylococcus aureus, B1): 128 µg/mL; zone of inhibition on agar plates (S. aureus B1 [2]): neither fiscalin C, ampicillin or oxacillin produced any zone of inhibition
CC(C)[C@@H]1NC(=O)[C@@H](C[C@]2(O)c3ccccc3N3C(=O)[C@H](C)N[C@H]32)n2c1nc1ccccc1c2=O [FIG. 1I (eq. vii), fiscalin A]	>256 µg/mL	>256 µg/mL	>256 µg/mL	>256 µg/mL	>256 µg/mL	>256 µg/mL	>256 µg/mL	
C[C@H]1C(=O)N2c3ccccc3[C@@]3(C[C@@H](n4cnc5ccccc5c4=O)C(=O)O3)[C@@H]2N1O [FIG. 1H (eq. ii), tryptoquivaline H]	>256 µg/mL	>256 µg/mL	>256 µg/mL	>256 µg/mL	>256 µg/mL	>256 µg/mL	> 256 µg/mL	
